The values below come from PubChem BioAssay AID179 (DTP/NCI, 2004).

This test relates to CEM cells HIV-1 protection, formazan growth assay. Kind of test: NCI AIDS Antiviral Assay. The settings on record: for IC50: measured here: growth of uninfected CEM cells. Put shortly: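 Soluble formazan readout of cell growth; CEM cells ± HIV-1; 5 drug concs. ≥50% protection → retest; ≥50% again = moderately active; reproducible 100% = confirmed active.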

The source made the active and inactive calls.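 The calls were made as follows: active = compounds giving half or more protection of infected cells from virus-caused growth loss, again on retest; inactive = the rest.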 Where a SMILES comes first, the peptide text is derived from it. The star is where a group is joined. Boc = CC(C)(C)OC(=O)*; OBn = c1ccc(CO*)cc1; Bn = c1ccc(C*)cc1

`Cn1cnc(N)c(N=O)c1=O`: the EC50 (as a rule, the concentration that produces a half-maximal response) is over 200 µM and the IC50 (commonly the point on the concentration scale where inhibition reaches its midpoint) was over 200 µM.
For the molecule `O=S(=O)(OI(O)CC(F)(F)F)C(F)(F)F`, the EC50 is over 200 µM and the IC50 was over 200 µM.
`CCSc1nc(N)c2c(-c3ccc(OC)c(OC)c3)c3c(nc2n1)CCCC3`: the EC50 was over 200 µM and the IC50 was over 200 µM.
Turning to `CN(C)CCC(=O)N1CCc2c([nH]c3ccccc23)C1c1cccnc1` (configuration not stated), the EC50 was over 372 µM and the IC50 is over 372 µM.
In the case of `CCN1C(=O)c2ccccc2C1(O)c1ccc(Cl)cc1` (configuration not stated), the EC50 is over 200 µM and the IC50 came to 151 µM.
In the same order, the values of `O=C1CCC2c3[nH]c4ccccc4c3CCN12` (configuration not stated) are over 200 µM and 186 µM.
As for `O=C1CSc2nc3ccccc3n2/C=N\N1`, the EC50 was over 200 µM and the IC50 was over 200 µM.
On to `Cc1ccc(N2CCC3(CC2)OCCO3)cc1`, for which the outcome was inactive.
Turning to `COc1c2c(cc3c1OCO3)[C@]13C=C[C@H](OC)C[C@H]1N(C2)CC3O` (some centres not stated), the EC50 was over 126 µM and the concentration for half-maximal inhibition (IC50) was over 126 µM.
Take `CSC1CC2C(CC1(C)SC)C2(C)C` (configuration not stated): the EC50 was over 155 µM and the IC50 was over 155 µM.
`Cn1c([N+](=O)[O-])cnc1CSc1ccc(C#N)cc1`: the EC50 was 117 µM and the half-inhibitory concentration (IC50) was over 200 µM.
As for `Nc1ccc(S(=O)(=O)Cc2ccc(C(=O)O)cc2)cc1`, the EC50 was over 324 µM and the IC50 is over 324 µM.
In the case of `Cc1nc2ccc(N)cc2[nH]c1=O`, the EC50 is over 741 µM and the IC50 was over 741 µM.
With `Cc1cc(NC(=O)C(=O)Cc2nc3ccccc3s2)ccc1Cl`, the EC50 is over 20.9 µM and the IC50 is over 20.9 µM.
As to `CCN(CC)CCNc1ccc2ncn3c4cc(OC)c(OC)c(=O)c4c(O)c1c23`, the EC50 is over 50.1 µM and the concentration for half-maximal inhibition (IC50) came to 0.589 µM.
Regarding `C#CCN(N=O)C(=O)NCCCCC(NC(=O)OCc1ccccc1)C(=O)OCc1ccccc1` (configuration not stated), the EC50 was over 28.2 µM and the IC50 is over 28.2 µM.
Consider `C#CCSc1nnnn1-c1ccccc1`, for which the EC50 is over 200 µM and the IC50 stood at 3.24 µM.
On the same counts, the results for `Oc1ccc(C2O[C@H](c3ccc(O)cc3)C(c3cc(O)cc(O)c3)C2c2cc(O)cc3c2C(c2cc(O)cc4c2C(c2cc(O)cc(O)c2)[C@H](c2ccc(O)cc2)O4)[C@@H](c2ccc(O)cc2)O3)cc1` (some centres not stated) are 36.3 µM and 214 µM.
As to `CNC(=O)CNC(=O)C(Cc1ccc(NC(=O)CCCCC(C)=O)cc1)NC(=O)C(CCC(=O)OCc1ccccc1)NC(=O)OC(C)(C)C` (configuration not stated), the EC50 was over 200 µM and the IC50 was over 200 µM.
Take `N#C/C(=C(\c1ccccc1)c1ccccn1)c1ccccc1`: the EC50 was over 20 µM and the IC50 was 1.1 µM.
Regarding `CC(=O)C(CN(C(C)C)C(C)C)C(c1ccccc1)c1c(O)c2ccccc2oc1=O` (configuration not stated), the EC50 was over 85.1 µM and the IC50 was 75.9 µM.
As for `CCOP(=O)(OCC)C(C#N)Cc1ccco1` (configuration not stated), the EC50 was 41.7 µM and the IC50 was over 200 µM.
`O=c1c2ccccc2oc2nc3cc(Cl)ccc3n12`: the EC50 is over 200 µM and the IC50 is over 200 µM.
For the molecule `COc1ccc([C@@]23Oc4cc(OC)cc(OC)c4[C@]2(O)[C@H](O)[C@H](C(=O)N(C)C)[C@H]3c2ccccc2)cc1`, the EC50 was over 200 µM and the 50% inhibitory concentration (IC50) turned out to be 0.0631 µM.
For the molecule `Cc1nc(-c2nc(C)c(C(=O)NNC(=O)C[n+]3ccccc3)s2)sc1C(=O)NNC(=O)C[n+]1ccccc1`, the EC50 was over 57.5 µM and the IC50 is over 57.5 µM.
As to `CCOC(=O)C(=O)NNc1cc(=O)n(C)c(=O)n1C`, the EC50 is over 200 µM and the IC50 was over 200 µM.
As to `O=C1CC2(CCN(CC3COc4ccccc4O3)CC2)C(=O)N1N1CCCCCC1` (configuration not stated), the EC50 was over 200 µM and the IC50 was determined as 72.4 µM.
Regarding `CN(C)CCN1C(=O)c2ccccc2C1(O)c1ccc(Cl)cc1` (configuration not stated), the EC50 was over 200 µM and the IC50 came to 44.7 µM.
On the same counts, the results for `COc1ccc2c(c1)CCC1=C/C(=N\NC(N)=O)CCC12C` (configuration not stated) are over 63.1 µM and over 63.1 µM.
In the same order, the values of `COc1ccc(C(C)NNC(=O)c2ccncc2)cc1OC` (configuration not stated) are over 200 µM and 30.2 µM.
Consider `O=C(O)c1ccccc1CC1Cc2ccccc2C1=O` (configuration not stated), for which the EC50 was over 200 µM and the IC50 was over 200 µM.
In the case of `Clc1ccnc2c1ccc1c(Cl)ccnc12`, the EC50 was over 75.9 µM and the IC50 stood at 13.8 µM.
With `CCOC(=O)NP(=O)(NC(=O)OCC)NC(=O)OCC`, the result was inactive.
Take `COc1ccc(OC)c(/C=C(/C#N)c2ccccc2)c1`: the EC50 was over 10.2 µM and the IC50 is over 10.2 µM.
With `Fc1nc(Sc2ncnc3nc[nH]c23)nc(-c2c3ccccc3c3sc4ccccc4n23)n1`, the EC50 is over 200 µM and the IC50 was determined as 97.7 µM.
In the case of `Cc1nc2c(sc3nc4ccccc4n32)c(=O)[nH]1`, the EC50 is over 100 µM and the IC50 was over 100 µM.
As for `CC(C)CC(NC(=O)C(Cc1ccc(O)cc1)NC(=O)C(CO)NC(=O)C(CCC(N)=O)NC(=O)C1CCCN1C(=O)C(CC(C)C)NC(=O)C(C)NC(=O)CNC(=O)C(N)CCC(N)=O)C(=O)NCC(=O)O` (configuration not stated) (H-QGALPQSYLG-OH; configuration not given here), the outcome was inactive.
For the molecule `O=C(NC1C=Nc2ccc([N+](=O)[O-])cc2NC1=O)c1cc(Cl)cc([N+](=O)[O-])c1` (configuration not stated), the EC50 was over 447 µM and the IC50 turned out to be 155 µM.
Regarding `O=C(CCCl)NNC1=NCCCCN1`, the EC50 is over 200 µM and the IC50 was over 200 µM.
Take `COc1cccc2c1[C@H]1OC(=O)NC1CCCCC2` (some centres not stated): the EC50 is over 200 µM and the IC50 was over 200 µM.
On to `COC(CC1(OC)OC(=O)C=C1N)OC` (configuration not stated), for which the result was inactive.
As to `COc1cc(C(=O)N(C(=O)N2CCCCC2)c2ccccc2)cc(OC)c1OC`, the EC50 is over 200 µM and the IC50 was over 200 µM.
With `CC(C)CC(NC(=O)C(Cc1ccccc1)NC(=O)C(COCc1ccccc1)NC(=O)OC(C)(C)C)C(=O)OCc1ccccc1` (stereo not drawn) (Boc-Ser(Bn)-Phe-Leu-OBn; configuration not given here), the EC50 was over 200 µM and the IC50 is 13.2 µM.
`CN(C)CCCCN1c2ccccc2Sc2cc(N=[N+]=[N-])ccc21`: the EC50 is over 200 µM and the IC50 came to 2.45 µM.
With `O=c1[nH]nc(-c2ccccc2)n1-n1cccc1`, the EC50 is over 200 µM and the IC50 came out at 97.7 µM.
For the molecule `CC#CCOC(=O)c1ccccc1OC(C)=O`, the EC50 is over 200 µM and the IC50 is over 200 µM.
Take `CCC(/C=C/C1OC(=O)C=CC1C)=C\C(C)C/C=C/C(C)=C/C(C)C(=O)C(C)C(O)C(C)C/C(C)=C/C(=O)O` (configuration not stated): the outcome was inactive.
With `O=[N+]([O-])C1(C2([N+](=O)[O-])CCCC2)CCCC1`, the EC50 was 44.7 µM and the IC50 is 110 µM.
On to `OCCO[P+]1(OCCO)n2c3ccc2C(c2ccccc2)=C2C=CC(=N2)C(c2ccccc2)=c2ccc(n21)=C(c1ccccc1)C1=NC(=C3c2ccccc2)C=C1`, for which the EC50 was over 0.2 µM and the IC50 is 0.0813 µM.
Regarding `CCCN(CCCCC(NC(C)=O)C(=O)NCc1ccccc1)C(=O)NCCCl` (configuration not stated), the EC50 is over 589 µM and the IC50 was over 589 µM.
With `CN1CN(c2ccccc2)C2(CCN(C3Nc4ccccc4O3)CC2)C1=O` (configuration not stated), the EC50 was over 200 µM and the IC50 amounted to 74.1 µM.
